Patent US7615543B2, “Treatment and prevention of tissue damage” (Pentraxin Therapeutics Limited, priority 2002, dated 2009)
Read-outs that look alike come from different tables or passages of the source.

Columns and labels:
[1] = target: T1, CRP (Homo sapiens, UniProt P02741)
T1 sequence (P02741 19-224): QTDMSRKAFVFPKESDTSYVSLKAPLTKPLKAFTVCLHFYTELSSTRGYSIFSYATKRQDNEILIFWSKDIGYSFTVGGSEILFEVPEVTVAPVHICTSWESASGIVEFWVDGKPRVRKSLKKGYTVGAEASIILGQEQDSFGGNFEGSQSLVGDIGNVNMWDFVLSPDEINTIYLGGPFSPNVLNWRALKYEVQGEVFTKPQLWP
Text: The Roche MIRA automated immunoassay for CRP (64) depends on recognition by a monoclonal antibody of a calcium-dependent epitope on the CRP molecule.

[2] = target: T2, SAP (Homo sapiens, UniProt P02743); assay: Isothermal calorimetry of CPHPC with SAP; conditions: read-out: affinity of binding, SAP and CPHPC
T2 sequence (P02743 20-223): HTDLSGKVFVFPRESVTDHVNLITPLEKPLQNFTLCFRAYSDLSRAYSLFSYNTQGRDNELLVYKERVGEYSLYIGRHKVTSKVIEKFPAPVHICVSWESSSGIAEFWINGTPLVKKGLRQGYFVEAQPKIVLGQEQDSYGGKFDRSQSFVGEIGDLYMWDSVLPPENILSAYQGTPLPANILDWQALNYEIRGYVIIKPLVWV
Text: This phenomenon contrasts sharply with the behaviour in vivo of the closely related molecule, serum amyloid P component (SAP), the other member of the human pentraxin protein family. SAP shares with CRP the homopentameric structure consisting of 5 identical protomers non-covalently associated in a disc like configuration, with a single calcium-dependent ligand binding site on one face of each subunit. […] The handling of aggregated human SAP in vivo may thus differ markedly from that of aggregated CRP. […] Thus compounds that are both bound by CRP with higher affinity and that cross-link it in more avid stable complexes, may cause accelerated clearance from the plasma in vivo.

[3] = target: T3, mouse SAP (Mus musculus, UniProt P12246); conditions: CPHPC administered to mice; cited from earlier work
T3 construct: host or cells: mice, endogenous circulating SAP
T3 sequence (P12246 21-224): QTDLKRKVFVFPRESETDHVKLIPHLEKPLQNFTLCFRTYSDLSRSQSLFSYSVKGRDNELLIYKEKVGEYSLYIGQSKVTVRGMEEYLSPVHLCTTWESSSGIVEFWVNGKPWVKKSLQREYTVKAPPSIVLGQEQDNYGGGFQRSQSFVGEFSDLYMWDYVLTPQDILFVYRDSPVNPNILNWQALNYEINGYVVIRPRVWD

[4] = target: T2, SAP; design: human SAP expressed in human SAP transgenic mice; host or cells: human SAP transgenic mice; circulation in vivo; conditions: cited from earlier work
[5] = target: T1, CRP; assay: Gel filtration (molecular sieve) chromatography of CRP molecular assembly; type: binding; conditions: 10 fold molar excess of drug
Text: The ligand binding sites on each of the 5 protomers in the CRP molecule are all on the same face of the disc-like pentameric assembly of the native protein.

Compound: D-Pro-hexanoyl-phosphocholine [DPHPC]
- reduction of MIRA CRP concentration ([1]; CRP 100 mg/l, SAP 100 mg/l (~4 μM), DPHPC 400 μM): 58%
- reduction of MIRA CRP concentration ([1]; CRP 100 mg/l, SAP 100 mg/l (~4 μM), DPHPC 2 mM): 89%
- reduction of MIRA CRP concentration ([1]; CRP 100 mg/l, SAP 100 mg/l (~4 μM), DPHPC 4 mM): 99%
- effect on apparent CRP concentration in MIRA assay ([1]; added to isolated pure CRP, no SAP): slightly reduces
- reduction of MIRA CRP value ([1]; pure CRP 100 mg/l (~4 μM), DPHPC 400 μM, no SAP): no effect
- reduction of MIRA CRP value ([1]; pure CRP 100 mg/l (~4 μM), DPHPC 4 mM, no SAP): 91%
- reduction of MIRA CRP value ([1]; second experiment: ~4 μM CRP, 1 mM DPHPC, SAP 400 nM): 61%
- reduction of MIRA CRP value ([1]; second experiment: ~4 μM CRP, 1 mM DPHPC, SAP 800 nM): 61%
- reduction of MIRA CRP value ([1]; second experiment: ~4 μM CRP, 1 mM DPHPC, SAP 2 μM): 73%
- reduction of MIRA CRP value ([1]; second experiment: ~4 μM CRP, 1 mM DPHPC, SAP about 4 μM): 85%
- reduction of MIRA CRP concentration ([1]; second experiment: ~4 μM CRP, 1 mM DPHPC, no SAP): 62%
- reduction of MIRA CRP value ([1]; whole serum, SAP and CRP both ~4 μM, 4 mM DPHPC): 44%
- enhancement by SAP of the effect of DPHPC alone in MIRA ([1]; whole serum, SAP concentrations lower than 2 μM, 4 mM DPHPC): no enhancement
- reduction of MIRA CRP value ([1]; whole serum, ~4 μM CRP, 2 μM SAP, 4 mM DPHPC): 29%
- reduction of CRP detectable in MIRA assay ([1]; whole serum, ~4 μM CRP, 4 mM DPHPC, no added SAP): 19%

Compound: O=C(O)[C@H]1CCCN1C(=O)CCCCC(=O)N1CCC[C@@H]1C(=O)O [CPHPC, (R)-1-[6-[(R)-2-Carboxy-pyrrolidin-1-yl]-6-oxo-hexanoyl]pyrrolidine-2-carboxylic acid]
- Kd [2]: 10 nM
- effect on clearance of mouse SAP in vivo [3]: does not accelerate clearance
- effect on human SAP in vivo ([4]; human SAP transgenic mice): dramatically clears
- clearance of SAP-CPHPC complexes from the circulation in vivo ([4]; pairs of SAP molecules cross linked by CPHPC): very rapidly cleared

Compound: C[N+](C)(C)CCOP(=O)([O-])O [phosphocholine]
- Molecular assembly of CRP [5]: Single pentamers
